Values quoted from earlier work in patent US10420763B2, “Sublingual apomorphine” (Sunovion Pharmaceuticals Inc., priority 2009, dated 2019).

Tested on: Parkinson's patients

For `CN1CCc2cccc3c2[C@H]1Cc1ccc(O)c(O)c1-3` [apomorphine], the “adverse effects of intranasal administration” value (intranasal administration (Koller et al. 2004)) is given as “transient nasal blockage, burning sensation and swollen nose and lips”, the “common side effect of subcutaneous injection” value (subcutaneous injection (Prietz et al. 1998)) is given as “development of nodules, which often become infected” and the “adverse effects of sublingual tablets” value (sublingual administration of apomorphine tablets, prolonged use (Deffond et al. 1993)) is given as “severe stomatitis on prolonged use with buccal mucosal ulceration in half the patients treated”.
